This note sets out measurements from PubChem BioAssay (NCI).

Test systems include 786-0 renal; ACHN renal; CCRF-CEM leukemia; COLO 205 colon; EKVX NSCLC; HL-60(TB) leukemia; HOP-62 NSCLC; LOX IMVI melanoma; RPMI-8226 leukemia; SF-539 CNS; SK-MEL-2 melanoma; SK-MEL-28 melanoma; SK-OV-3 ovarian; SNB-75 CNS; TK-10 renal; NCI-H226 lung; PC-3 prostate; SF-268 CNS.
Holding throughout (test): DTP human tumour cell line panel, 48 h

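Compound exposure: 48 hours, 5 concentrations, 96-well plates. At the TGI there is no net growth.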

Usually TGI stands for the concentration giving total growth inhibition. Consider `CCN(CC)C(=O)CC12CCCCC1=Nc1ccccc12` (centres undefined), for which the TGI in the assay with 786-0 renal, with ACHN renal, in the assay on CCRF-CEM leukemia, in the assay on COLO 205 colon, in the assay with EKVX NSCLC and with HL-60(TB) leukemia was over 100 µM throughout. In addition, the TGI in the assay on HOP-62 NSCLC, in the assay on LOX IMVI melanoma, in the assay with RPMI-8226 leukemia, in the assay with SF-539 CNS, in the assay on SK-MEL-2 melanoma and in the assay with SK-MEL-28 melanoma was over 100 µM each time. Also, the TGI in the assay with SK-OV-3 ovarian, in the assay on SNB-75 CNS and in the assay with TK-10 renal was over 100 µM in each case.
`CC(C)[Si](Oc1ccc(CC2N(C(=O)c3ccc([N+](=O)[O-])cc3)C(CCc3ccccc3)CC2(C)C=O)cc1)(C(C)C)C(C)C` (centres undefined): the concentration for total growth inhibition (TGI) in the assay on 786-0 renal is over 100 µM; with ACHN renal, over 100 µM; with CCRF-CEM leukemia, over 100 µM; in the assay on COLO 205 colon, over 100 µM; with EKVX NSCLC, over 100 µM; in the assay on HOP-62 NSCLC, 31.5 µM. Further, the TGI with LOX IMVI melanoma was over 100 µM; in the assay on NCI-H226 lung, 98.2 µM; with PC-3 prostate, over 100 µM; with RPMI-8226 leukemia it was over 100 µM; with SF-268 CNS, 54.8 µM; with SF-539 CNS, 23.2 µM. Also, the TGI in the assay with SK-MEL-2 melanoma, in the assay on SK-MEL-28 melanoma, in the assay on SK-OV-3 ovarian and with TK-10 renal was over 100 µM in each case.
In the case of `CC1=CC[C@@H](C(C)(C)O)C[C@@H]1O`, the TGI in the assay with 786-0 renal, in the assay on ACHN renal, in the assay on CCRF-CEM leukemia, in the assay on COLO 205 colon, with EKVX NSCLC and in the assay on HL-60(TB) leukemia was over 5000 µM each time. For the same compound, the TGI in the assay with HOP-62 NSCLC, in the assay on LOX IMVI melanoma, in the assay on NCI-H226 lung, with SF-268 CNS, with SF-539 CNS and in the assay with SK-MEL-2 melanoma was over 5000 µM each time. Moreover, the TGI in the assay with SK-MEL-28 melanoma, with SK-OV-3 ovarian, with SNB-75 CNS and in the assay on TK-10 renal was over 5000 µM each time.
Take `C=C1CN2CCc3c([nH]c4ccccc34)C2CC1CC(=O)N(C)C` (centres undefined): the TGI in the assay with 786-0 renal, in the assay on ACHN renal, in the assay on CCRF-CEM leukemia, with COLO 205 colon, with EKVX NSCLC and in the assay on HL-60(TB) leukemia was over 309 µM each time. Also, the TGI in the assay with HOP-62 NSCLC, in the assay with LOX IMVI melanoma, with NCI-H226 lung, in the assay with RPMI-8226 leukemia, in the assay with SF-268 CNS and in the assay on SF-539 CNS was over 309 µM each time. Moreover, the TGI in the assay on SK-MEL-2 melanoma, in the assay with SK-MEL-28 melanoma, with SK-OV-3 ovarian and in the assay on TK-10 renal was over 309 µM in each case.
For `CSC1=Nc2ccccc2N=C(c2ccccc2)C1`, the TGI in the assay with 786-0 renal was over 100 µM; in the assay with ACHN renal, over 100 µM; with CCRF-CEM leukemia, 58.9 µM; in the assay with COLO 205 colon it was 51.8 µM; in the assay with EKVX NSCLC, over 100 µM; in the assay on HL-60(TB) leukemia it was 34.9 µM. The total growth inhibition concentration (TGI) was over 100 µM with HOP-62 NSCLC; 32.2 µM with LOX IMVI melanoma; over 100 µM in the assay on NCI-H226 lung; over 100 µM in the assay on SF-268 CNS; over 100 µM in the assay on SF-539 CNS; over 100 µM in the assay with SK-MEL-2 melanoma. The TGI in the assay with SK-MEL-28 melanoma, in the assay with SK-OV-3 ovarian, in the assay on SNB-75 CNS and in the assay with TK-10 renal was over 100 µM in each case.
With `COC(=O)C(C(=O)C(=O)Nc1ccccc1C)c1nc2ccc([N+](=O)[O-])cc2[nH]c1=O` (centres undefined), the TGI in the assay on 786-0 renal, with ACHN renal, with CCRF-CEM leukemia, in the assay on COLO 205 colon, in the assay with EKVX NSCLC and in the assay on HL-60(TB) leukemia was over 100 µM each time. Further, the total growth inhibition concentration (TGI) with HOP-62 NSCLC, in the assay on LOX IMVI melanoma, in the assay with NCI-H226 lung, in the assay with RPMI-8226 leukemia, in the assay on SF-268 CNS and in the assay on SF-539 CNS was over 100 µM each time. For the same compound, the TGI in the assay with SK-MEL-2 melanoma, in the assay with SK-MEL-28 melanoma, in the assay on SK-OV-3 ovarian, with SNB-75 CNS and in the assay on TK-10 renal was over 100 µM throughout.
In the case of `COC(=O)C1=CCC2c3[nH]c4ccccc4c3CCN2C1` (centres undefined), the TGI in the assay with 786-0 renal, in the assay with ACHN renal, with CCRF-CEM leukemia, with COLO 205 colon, in the assay on EKVX NSCLC and in the assay with HL-60(TB) leukemia was over 354 µM throughout. Further, the TGI in the assay with HOP-62 NSCLC, in the assay on LOX IMVI melanoma, with NCI-H226 lung, in the assay on RPMI-8226 leukemia, in the assay on SF-268 CNS and in the assay on SF-539 CNS was over 354 µM throughout. Further, the TGI in the assay with SK-MEL-2 melanoma, in the assay on SK-MEL-28 melanoma, in the assay with SK-OV-3 ovarian and in the assay with TK-10 renal was over 354 µM in each case.
`CC(=O)O[C@@H]1CC[C@@]2(C)C(=O)C34C[C@@]5(C)C([C@@H](C)CCCC(C)C)CCC5(C)[C@](O)(O3)C(=O)[C@H]4C2C1(C)C` (some centres undefined): the TGI in the assay on 786-0 renal came to 25.6 µM; with ACHN renal it was 27 µM; in the assay on CCRF-CEM leukemia, 19.8 µM; in the assay with COLO 205 colon, 27.8 µM; with EKVX NSCLC, 38.3 µM; in the assay on HL-60(TB) leukemia, 25.3 µM. In addition, the TGI in the assay with HOP-62 NSCLC came out at 33.1 µM; in the assay with LOX IMVI melanoma, 32.1 µM; in the assay on NCI-H226 lung, 29.6 µM; in the assay on RPMI-8226 leukemia it was 38.9 µM; with SF-268 CNS it was 34.9 µM; in the assay on SF-539 CNS it was 39.4 µM. The TGI stood at 37 µM in the assay on SK-MEL-2 melanoma; 35.6 µM in the assay with SK-MEL-28 melanoma; 32.4 µM in the assay with SK-OV-3 ovarian; 29.6 µM in the assay with SNB-75 CNS; 30.5 µM with TK-10 renal.
